Columns and labels:
Experiment in all cases: β-arrestin based GPCR screen (PathHunter / GPCRmax), antagonist mode
168 GPCRs [1] = biological target: 168 GPCRs (Homo sapiens, UniProt P43119); conditions: PTGIR
168 GPCRs [2] = biological target: 168 GPCRs (Homo sapiens, UniProt P32246); conditions: CCR1, Antagonist
168 GPCRs [3] = biological target: 168 GPCRs (Homo sapiens, UniProt Q96LB1)
168 GPCRs [4] = biological target: 168 GPCRs (Homo sapiens, UniProt P08588); conditions: ADRB1, Antagonist
168 GPCRs [5] = biological target: 168 GPCRs (Homo sapiens, UniProt P51684); conditions: CCR6, Antagonist
Chain of 168 GPCRs (Homo sapiens, UniProt P51684) (P51684 whole entry): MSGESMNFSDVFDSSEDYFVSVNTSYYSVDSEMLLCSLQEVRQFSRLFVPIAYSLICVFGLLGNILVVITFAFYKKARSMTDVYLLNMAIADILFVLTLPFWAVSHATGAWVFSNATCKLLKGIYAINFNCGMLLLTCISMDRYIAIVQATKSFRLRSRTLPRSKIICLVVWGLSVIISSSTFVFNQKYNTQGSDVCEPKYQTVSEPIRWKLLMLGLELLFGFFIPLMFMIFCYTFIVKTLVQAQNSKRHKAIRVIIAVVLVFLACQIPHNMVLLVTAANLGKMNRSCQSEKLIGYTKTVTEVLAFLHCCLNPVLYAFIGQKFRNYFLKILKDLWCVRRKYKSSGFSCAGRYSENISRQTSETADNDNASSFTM

168 GPCRs [6] = biological target: 168 GPCRs (Homo sapiens, UniProt P50391)
168 GPCRs [7] = biological target: 168 GPCRs (Homo sapiens, UniProt O00574)
Chain of 168 GPCRs (Homo sapiens, UniProt O00574) (O00574 whole entry): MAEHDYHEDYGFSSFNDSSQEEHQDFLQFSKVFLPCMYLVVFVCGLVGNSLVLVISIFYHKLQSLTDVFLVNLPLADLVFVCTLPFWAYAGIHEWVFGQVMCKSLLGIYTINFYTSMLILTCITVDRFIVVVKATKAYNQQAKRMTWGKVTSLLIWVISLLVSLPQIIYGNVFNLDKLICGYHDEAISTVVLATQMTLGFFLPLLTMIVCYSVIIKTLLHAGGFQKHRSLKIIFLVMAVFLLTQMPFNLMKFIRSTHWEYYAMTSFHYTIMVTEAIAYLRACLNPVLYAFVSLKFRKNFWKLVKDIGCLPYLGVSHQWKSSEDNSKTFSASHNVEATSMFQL

168 GPCRs [8] = biological target: 168 GPCRs (Homo sapiens, UniProt P35346)
168 GPCRs [9] = biological target: 168 GPCRs (Homo sapiens, UniProt Q969V1)
168 GPCRs [10] = biological target: 168 GPCRs (Homo sapiens, UniProt P41586); conditions: ADCYAP1R1, Antagonist
Chain of 168 GPCRs (Homo sapiens, UniProt P41586) (P41586 21-468): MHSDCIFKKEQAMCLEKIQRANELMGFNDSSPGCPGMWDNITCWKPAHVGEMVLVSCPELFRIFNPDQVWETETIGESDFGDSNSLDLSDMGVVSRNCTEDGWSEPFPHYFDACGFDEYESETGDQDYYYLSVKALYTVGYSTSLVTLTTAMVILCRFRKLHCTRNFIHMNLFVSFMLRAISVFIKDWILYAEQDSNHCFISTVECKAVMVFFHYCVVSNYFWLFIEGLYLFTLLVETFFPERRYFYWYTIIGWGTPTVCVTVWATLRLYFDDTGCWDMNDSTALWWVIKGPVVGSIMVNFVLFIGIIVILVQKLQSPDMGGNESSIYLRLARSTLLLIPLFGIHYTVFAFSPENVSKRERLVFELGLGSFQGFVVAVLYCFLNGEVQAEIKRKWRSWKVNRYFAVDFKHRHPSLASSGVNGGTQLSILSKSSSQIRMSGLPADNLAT

168 GPCRs [11] = biological target: 168 GPCRs (Homo sapiens, UniProt P41146)
Chain of 168 GPCRs (Homo sapiens, UniProt P41146) (P41146 whole entry): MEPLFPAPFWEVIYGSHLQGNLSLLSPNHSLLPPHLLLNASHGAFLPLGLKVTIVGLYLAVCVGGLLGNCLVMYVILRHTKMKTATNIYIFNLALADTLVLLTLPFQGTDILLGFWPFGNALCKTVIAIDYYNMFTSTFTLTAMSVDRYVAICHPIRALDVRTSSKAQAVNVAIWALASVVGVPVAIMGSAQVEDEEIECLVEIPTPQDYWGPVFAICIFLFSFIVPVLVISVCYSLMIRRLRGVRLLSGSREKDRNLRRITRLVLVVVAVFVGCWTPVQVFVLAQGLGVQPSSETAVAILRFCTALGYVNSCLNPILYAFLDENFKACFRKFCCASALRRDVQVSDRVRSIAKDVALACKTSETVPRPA

168 GPCRs [12] = biological target: 168 GPCRs (Homo sapiens, UniProt Q9Y5N1)
168 GPCRs [13] = biological target: 168 GPCRs (Homo sapiens, UniProt P47211)
Chain of 168 GPCRs (Homo sapiens, UniProt P47211) (P47211 whole entry): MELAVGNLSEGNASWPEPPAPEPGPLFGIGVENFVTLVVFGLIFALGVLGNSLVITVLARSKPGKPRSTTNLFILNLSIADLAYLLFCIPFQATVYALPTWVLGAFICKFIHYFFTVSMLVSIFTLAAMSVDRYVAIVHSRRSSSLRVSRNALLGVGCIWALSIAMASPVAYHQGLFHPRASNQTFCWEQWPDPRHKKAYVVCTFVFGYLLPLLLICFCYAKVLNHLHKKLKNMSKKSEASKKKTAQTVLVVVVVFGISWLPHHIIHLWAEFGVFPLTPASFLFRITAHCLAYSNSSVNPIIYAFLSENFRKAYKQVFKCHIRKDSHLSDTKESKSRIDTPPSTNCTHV

168 GPCRs [14] = biological target: 168 GPCRs (Homo sapiens, UniProt Q9UKP6)
168 GPCRs [15] = biological target: 168 GPCRs (Homo sapiens, UniProt Q15722); conditions: LTB4R
Chain of 168 GPCRs (Homo sapiens, UniProt Q15722) (Q15722 whole entry): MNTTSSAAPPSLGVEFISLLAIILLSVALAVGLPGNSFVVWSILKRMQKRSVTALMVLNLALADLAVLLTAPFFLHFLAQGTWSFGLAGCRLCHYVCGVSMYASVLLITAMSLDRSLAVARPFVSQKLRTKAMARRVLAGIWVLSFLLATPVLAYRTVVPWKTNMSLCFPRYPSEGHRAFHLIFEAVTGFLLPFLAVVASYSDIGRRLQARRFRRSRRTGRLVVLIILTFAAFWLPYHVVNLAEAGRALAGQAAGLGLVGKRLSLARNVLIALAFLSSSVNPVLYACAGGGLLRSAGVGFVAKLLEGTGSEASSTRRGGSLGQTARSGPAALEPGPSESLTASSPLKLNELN

168 GPCRs [16] = biological target: 168 GPCRs (Homo sapiens, UniProt Q9UBY5)
Chain of 168 GPCRs (Homo sapiens, UniProt Q9UBY5) (Q9UBY5 whole entry): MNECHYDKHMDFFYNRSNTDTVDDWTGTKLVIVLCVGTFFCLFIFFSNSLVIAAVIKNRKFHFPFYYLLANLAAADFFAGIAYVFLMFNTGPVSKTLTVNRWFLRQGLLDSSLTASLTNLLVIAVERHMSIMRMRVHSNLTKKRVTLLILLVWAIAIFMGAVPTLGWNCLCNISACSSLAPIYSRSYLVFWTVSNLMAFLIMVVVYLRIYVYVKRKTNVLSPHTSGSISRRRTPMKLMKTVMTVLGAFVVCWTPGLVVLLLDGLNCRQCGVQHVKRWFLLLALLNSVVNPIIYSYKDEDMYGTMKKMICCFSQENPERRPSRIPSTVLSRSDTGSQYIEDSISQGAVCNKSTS

168 GPCRs [17] = biological target: 168 GPCRs (Homo sapiens, UniProt P46091)
Chain of 168 GPCRs (Homo sapiens, UniProt P46091) (P46091 whole entry): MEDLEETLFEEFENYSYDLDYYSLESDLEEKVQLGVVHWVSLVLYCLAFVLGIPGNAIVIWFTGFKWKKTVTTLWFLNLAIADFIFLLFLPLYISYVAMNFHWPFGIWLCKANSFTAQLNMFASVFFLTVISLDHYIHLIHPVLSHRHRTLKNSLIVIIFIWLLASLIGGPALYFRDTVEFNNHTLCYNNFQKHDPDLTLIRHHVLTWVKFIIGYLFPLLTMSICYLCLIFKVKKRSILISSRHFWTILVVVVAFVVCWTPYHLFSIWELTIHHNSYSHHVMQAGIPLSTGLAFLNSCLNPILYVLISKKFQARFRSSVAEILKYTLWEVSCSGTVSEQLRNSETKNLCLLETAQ

168 GPCRs [18] = biological target: 168 GPCRs (Homo sapiens, UniProt P35368); conditions: ADRA1B, Antagonist
Chain of 168 GPCRs (Homo sapiens, UniProt P35368) (P35368 whole entry): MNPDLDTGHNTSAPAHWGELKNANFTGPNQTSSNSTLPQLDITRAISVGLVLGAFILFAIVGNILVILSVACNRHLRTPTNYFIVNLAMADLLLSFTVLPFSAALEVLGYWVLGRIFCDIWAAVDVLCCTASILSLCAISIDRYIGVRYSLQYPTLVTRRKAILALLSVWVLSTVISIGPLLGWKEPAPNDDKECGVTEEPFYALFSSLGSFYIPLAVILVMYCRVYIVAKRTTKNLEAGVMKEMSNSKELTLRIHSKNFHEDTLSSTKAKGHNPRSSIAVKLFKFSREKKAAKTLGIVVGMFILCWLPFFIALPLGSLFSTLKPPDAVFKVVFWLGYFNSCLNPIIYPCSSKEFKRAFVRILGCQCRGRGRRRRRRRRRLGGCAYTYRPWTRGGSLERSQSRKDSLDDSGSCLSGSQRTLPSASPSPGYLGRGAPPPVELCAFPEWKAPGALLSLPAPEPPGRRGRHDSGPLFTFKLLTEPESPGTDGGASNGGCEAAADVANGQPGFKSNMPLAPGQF

168 GPCRs [19] = biological target: 168 GPCRs (Homo sapiens, UniProt P25105); conditions: PTAFR
168 GPCRs [20] = biological target: 168 GPCRs (Homo sapiens, UniProt Q8TCW9)
168 GPCRs [21] = biological target: 168 GPCRs (Homo sapiens, UniProt P35367)
Chain of 168 GPCRs (Homo sapiens, UniProt P35367) (P35367 whole entry): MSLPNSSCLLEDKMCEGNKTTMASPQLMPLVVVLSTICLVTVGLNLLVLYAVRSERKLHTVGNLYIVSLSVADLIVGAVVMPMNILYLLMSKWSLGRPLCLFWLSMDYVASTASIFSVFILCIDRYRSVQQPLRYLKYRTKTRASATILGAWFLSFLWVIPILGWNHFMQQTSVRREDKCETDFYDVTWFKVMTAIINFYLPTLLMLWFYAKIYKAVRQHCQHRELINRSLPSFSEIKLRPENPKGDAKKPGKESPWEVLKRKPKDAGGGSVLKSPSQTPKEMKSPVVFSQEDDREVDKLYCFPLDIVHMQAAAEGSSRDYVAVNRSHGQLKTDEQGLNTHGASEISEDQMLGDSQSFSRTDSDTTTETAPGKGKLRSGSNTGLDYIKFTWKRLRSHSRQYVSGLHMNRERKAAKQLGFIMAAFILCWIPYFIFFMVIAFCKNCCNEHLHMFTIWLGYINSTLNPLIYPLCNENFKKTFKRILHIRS

168 GPCRs [22] = biological target: 168 GPCRs (Homo sapiens, UniProt Q96P65)
Chain of 168 GPCRs (Homo sapiens, UniProt Q96P65) (Q96P65 whole entry): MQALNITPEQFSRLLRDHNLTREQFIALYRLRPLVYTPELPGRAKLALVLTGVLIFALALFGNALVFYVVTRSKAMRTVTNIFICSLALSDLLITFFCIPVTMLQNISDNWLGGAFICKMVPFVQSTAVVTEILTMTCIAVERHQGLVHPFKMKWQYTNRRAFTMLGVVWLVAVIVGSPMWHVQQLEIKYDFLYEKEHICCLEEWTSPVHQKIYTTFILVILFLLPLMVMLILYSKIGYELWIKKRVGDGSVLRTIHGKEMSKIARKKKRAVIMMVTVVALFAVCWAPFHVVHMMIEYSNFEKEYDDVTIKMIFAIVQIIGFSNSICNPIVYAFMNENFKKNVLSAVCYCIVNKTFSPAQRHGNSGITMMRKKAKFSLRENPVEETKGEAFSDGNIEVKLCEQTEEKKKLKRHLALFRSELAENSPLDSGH

168 GPCRs [23] = biological target: 168 GPCRs (Homo sapiens, UniProt P49146); conditions: NPY2R

Chain of 168 GPCRs (Homo sapiens, UniProt P43119) (P43119 whole entry): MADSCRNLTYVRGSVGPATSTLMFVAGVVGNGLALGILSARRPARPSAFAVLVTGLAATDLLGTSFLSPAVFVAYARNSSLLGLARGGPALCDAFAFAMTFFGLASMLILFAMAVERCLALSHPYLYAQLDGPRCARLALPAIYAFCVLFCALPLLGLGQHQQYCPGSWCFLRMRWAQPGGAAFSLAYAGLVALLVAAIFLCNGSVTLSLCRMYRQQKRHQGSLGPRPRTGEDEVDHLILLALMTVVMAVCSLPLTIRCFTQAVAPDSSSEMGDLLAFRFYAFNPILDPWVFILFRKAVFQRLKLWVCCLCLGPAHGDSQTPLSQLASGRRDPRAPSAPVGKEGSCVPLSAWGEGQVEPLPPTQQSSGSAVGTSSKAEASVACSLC

SMILES: CNC(C)C(=O)c1ccc2c(c1)OCO2 (stereo not shown) [methylone, 3,4-methylenedioxy-N-methylcathinone]
- activity at 10 µM (168 GPCRs [1]; Antagonist mode, 10 uM): -21.5%
- activity at 1 µM (168 GPCRs [1]; Antagonist, 1 uM): 12.4%
- activity at 1 µM (168 GPCRs [2]; 1 uM): -8.1%
- activity at 10 µM (168 GPCRs [2]; 10 uM): -16.6%
- activity at 10 µM (168 GPCRs [3]; MRGPRX2, Antagonist mode, 10 uM): 8.9%
- activity at 1 µM (168 GPCRs [3]; MRGPRX2, Antagonist, 1 uM): 16.2%
- activity at 1 µM (168 GPCRs [4]; 1 uM): -0.8%
- activity at 10 µM (168 GPCRs [4]; 10 uM): -1.2%
- activity at 1 µM (168 GPCRs [5]; 1 uM): 9.3%
- activity at 10 µM (168 GPCRs [5]; 10 uM): -1.6%
- activity at 10 µM (168 GPCRs [6]; PPYR1, Antagonist mode, 10 uM): 6.5%
- activity at 1 µM (168 GPCRs [6]; PPYR1, Antagonist, 1 uM): 9.5%
- activity at 10 µM (168 GPCRs [7]; CXCR6, Antagonist mode, 10 uM): 12.6%
- activity at 1 µM (168 GPCRs [7]; CXCR6, Antagonist, 1 uM): 27.2%
- activity at 10 µM (168 GPCRs [8]; SSTR5, Antagonist mode, 10 uM): 5.7%
- activity at 1 µM (168 GPCRs [8]; SSTR5, Antagonist, 1 uM): 14.7%
- activity at 10 µM (168 GPCRs [9]; MCHR2, Antagonist mode, 10 uM): -4.5%
- activity at 1 µM (168 GPCRs [9]; MCHR2, Antagonist, 1 uM): 2%
- activity at 1 µM (168 GPCRs [10]; 1 uM): 13.6%
- activity at 10 µM (168 GPCRs [10]; 10 uM): 12.5%
- activity at 10 µM (168 GPCRs [11]; OPRL1, Antagonist mode, 10 uM): 13.2%
- activity at 1 µM (168 GPCRs [11]; OPRL1, Antagonist, 1 uM): 17.1%
- activity at 10 µM (168 GPCRs [12]; HRH3, Antagonist mode, 10 uM): 5.8%
- activity at 1 µM (168 GPCRs [12]; HRH3, Antagonist, 1 uM): 9.5%
- activity at 10 µM (168 GPCRs [13]; GALR1, Antagonist mode, 10 uM): 6.8%
- activity at 1 µM (168 GPCRs [13]; GALR1, Antagonist, 1 uM): 7.1%
- activity at 10 µM (168 GPCRs [14]; UTR2, Antagonist mode, 10 uM): 4.2%
- activity at 1 µM (168 GPCRs [14]; UTR2, Antagonist, 1 uM): -2.1%
- activity at 10 µM (168 GPCRs [15]; Antagonist mode, 10 uM): -5.2%
- activity at 1 µM (168 GPCRs [15]; Antagonist, 1 uM): 3.5%
- activity at 10 µM (168 GPCRs [16]; EDG7, Antagonist mode, 10 uM): 17.9%
- activity at 1 µM (168 GPCRs [16]; EDG7, Antagonist, 1 uM): 19.5%
- activity at 10 µM (168 GPCRs [17]; GPR1, Antagonist mode, 10 uM): 7.4%
- activity at 1 µM (168 GPCRs [17]; GPR1, Antagonist, 1 uM): 4.4%
- activity at 1 µM (168 GPCRs [18]; 1 uM): 17.9%
- activity at 10 µM (168 GPCRs [18]; 10 uM): 20.6%
- activity at 10 µM (168 GPCRs [19]; Antagonist mode, 10 uM): -6.7%
- activity at 1 µM (168 GPCRs [19]; Antagonist, 1 uM): 2%
- activity at 10 µM (168 GPCRs [20]; PROKR1, Antagonist mode, 10 uM): 3.3%
- % Activity (168 GPCRs [20]; PROKR1, Antagonist): 8.7%
- activity at 10 µM (168 GPCRs [21]; HRH1, Antagonist mode, 10 uM): 2.2%
- activity at 1 µM (168 GPCRs [21]; HRH1, Antagonist, 1 uM): -18%
- activity at 10 µM (168 GPCRs [22]; GPR103, Antagonist mode, 10 uM): 7%
- activity at 1 µM (168 GPCRs [22]; GPR103, Antagonist, 1 uM): 4.1%
- activity at 10 µM (168 GPCRs [23]; Antagonist mode, 10 uM): 2%
- activity at 1 µM (168 GPCRs [23]; Antagonist, 1 uM): 2.3%

Source: patent US12343326B2, “Psychoactive medicines and their use for treating psychiatric and neurological conditions and disorders” (Transcend Therapeutics, Inc., priority 2021, dated 2025)
